From PubChem BioAssay AID1963827 (Molecular Pharmacology Branch, DTP, NCI, 2024)
pIC50: −log10 of the molar value.

System: 994946-033-R-J1-PDC complex spheroid viability
Test: Anticancer human tumor 994946-033-R-J1-PDC patient-derived melanoma cell line growth inhibition [POLQ]
Details: for pIC50: curve of first compound; for viability, T/C: stronger effect = lower value
Procedure, shortened: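 PDC + HUVEC + MSC complex spheroids; POLQ inhibitors ± partner drugs; top conc. at/near clinical Cmax, else 10 microM (SN-38 1 microM), half-log dilutions; 37 degrees C, 5% CO2.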

[1] = second compound 0.0316 µM, first compound 0.0316 µM
[2] = second compound 0.0316 µM, first compound 0.1 µM
[3] = second compound 0.0316 µM, first compound 0.316 µM
[4] = second compound 0.0316 µM, first compound 1 µM
[5] = second compound 0.0316 µM, first compound 3.16 µM
[6] = second compound 0.0316 µM, first compound 10 µM
[7] = second compound 0.1 µM, first compound 0.0316 µM
[8] = second compound 0.1 µM, first compound 0.1 µM
[9] = second compound 0.1 µM, first compound 0.316 µM
[10] = second compound 0.1 µM, first compound 1 µM
[11] = second compound 0.1 µM, first compound 3.16 µM
[12] = second compound 0.1 µM, first compound 10 µM
[13] = second compound 0.316 µM, first compound 0.0316 µM
[14] = second compound 0.316 µM, first compound 0.1 µM
[15] = second compound 0.316 µM, first compound 0.316 µM
[16] = second compound 0.316 µM, first compound 1 µM
[17] = second compound 0.316 µM, first compound 3.16 µM
[18] = second compound 0.316 µM, first compound 10 µM
[19] = second compound 1 µM, first compound 0.0316 µM
[20] = second compound 1 µM, first compound 0.1 µM
[21] = second compound 1 µM, first compound 0.316 µM
[22] = second compound 1 µM, first compound 1 µM
[23] = second compound 1 µM, first compound 3.16 µM
[24] = second compound 1 µM, first compound 10 µM
[25] = second compound 3.16 µM, first compound 0.0316 µM
[26] = second compound 3.16 µM, first compound 0.1 µM
[27] = second compound 3.16 µM, first compound 0.316 µM
[28] = second compound 3.16 µM, first compound 1 µM
[29] = second compound 3.16 µM, first compound 3.16 µM
[30] = second compound 3.16 µM, first compound 10 µM
[31] = second compound 10 µM, first compound 0.0316 µM
[32] = second compound 10 µM, first compound 0.1 µM
[33] = second compound 10 µM, first compound 0.316 µM
[34] = second compound 10 µM, first compound 1 µM
[35] = second compound 10 µM, first compound 3.16 µM
[36] = second compound 10 µM, first compound 10 µM
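Note: spheroids exposed to drugs for 7 days.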
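Throughout, for viability, T/C: 100% = DMSO vehicle treated spheroids.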

In the case of `CCc1cc2c(N3CCc4c(cc(Cn5ccnc5)cc4-c4cn(C)nc4C(F)(F)F)C3=O)ccnc2c(OC)n1` + Cc1cccc(N(C)C(=O)C2C(O)CCN2c2nc(C)cc(C(F)(F)F)c2C#N)c1, the pIC50 (second compound 0.0316 µM) was less than 5.00, the pIC50 (second compound 0.1 µM) was less than 5.00 and the pIC50 (second compound 0.316 µM) was less than 5.00. It also gave a pIC50 (second compound 1 µM) of less than 5.00, a pIC50 (second compound 3.16 µM) of less than 5.00 and a pIC50 (second compound 10 µM) of less than 5.00. The viability, T/C [1] was 107%, the viability, T/C [2] was 86.7% and the viability, T/C [3] was 68.3%. It also gave a viability, T/C [4] of 78.4%, a viability, T/C [5] of 69.1% and a viability, T/C [6] of 67.4%. For the same molecule, the viability, T/C [7] was 95.3%, the viability, T/C [8] was 85.2% and the viability, T/C [9] was 78.6%. For the same molecule, the viability, T/C [10] was 78.1%, the viability, T/C [11] was 66.3% and the viability, T/C [12] was 66.9%. It also gave a viability, T/C [13] of 102%, a viability, T/C [14] of 94.2% and a viability, T/C [15] of 86.1%. For the same molecule, the viability, T/C [16] was 93.9%, the viability, T/C [17] was 63.3% and the viability, T/C [18] was 61.6%. For the same molecule, the viability, T/C [19] was 77.7%, the viability, T/C [20] was 78.8% and the viability, T/C [21] was 93.5%. For the same molecule, the viability, T/C [22] was 80.1%, the viability, T/C [23] was 84.1% and the viability, T/C [24] was 55.2%. It also gave a viability, T/C [25] of 92.4%, a viability, T/C [26] of 76.8% and a viability, T/C [27] of 65%. For the same molecule, the viability, T/C [28] was 63%, the viability, T/C [29] was 85.9% and the viability, T/C [30] was 53.1%. For the same molecule, the viability, T/C [31] was 81.5%, the viability, T/C [32] was 65.4% and the viability, T/C [33] was 73.6%. It also gave a viability, T/C [34] of 57.8%, a viability, T/C [35] of 71.7% and a viability, T/C [36] of 65.9%.
For `O=C(Nc1ccc(O)c(NS(=O)(=O)c2ccc(F)cc2)c1)c1ccc(-c2ccccc2)cc1` + Nc1ccc(C#CCN(C(=O)Cc2ncc(C(F)(F)F)cc2C(F)(F)F)c2ccc(F)cc2)nn1, the pIC50 (second compound 0.0316 µM) was 5.15, the pIC50 (second compound 0.1 µM) was 5.32 and the pIC50 (second compound 0.316 µM) was 5.12. The pIC50 (second compound 1 µM) was 5.07, the pIC50 (second compound 3.16 µM) was 5.04 and the pIC50 (second compound 10 µM) was less than 5.00. It also gave a viability, T/C [1] of 79.4%, a viability, T/C [2] of 95.7% and a viability, T/C [3] of 92.9%. The viability, T/C [4] was 77.1%, the viability, T/C [5] was 84.1% and the viability, T/C [6] was 35.6%. For the same molecule, the viability, T/C [7] was 104%, the viability, T/C [8] was 94.1% and the viability, T/C [9] was 100%. For the same molecule, the viability, T/C [10] was 111%, the viability, T/C [11] was 59.8% and the viability, T/C [12] was 32.7%. It also gave a viability, T/C [13] of 88.2%, a viability, T/C [14] of 134% and a viability, T/C [15] of 97.6%. The viability, T/C [16] was 89.9%, the viability, T/C [17] was 93.1% and the viability, T/C [18] was 36.7%. For the same molecule, the viability, T/C [19] was 98.1%, the viability, T/C [20] was 74.2% and the viability, T/C [21] was 133%. The viability, T/C [22] was 117%, the viability, T/C [23] was 92.8% and the viability, T/C [24] was 42.9%. For the same molecule, the viability, T/C [25] was 114%, the viability, T/C [26] was 84.7% and the viability, T/C [27] was 98.4%. For the same molecule, the viability, T/C [28] was 94.4%, the viability, T/C [29] was 67.4% and the viability, T/C [30] was 48.8%. For the same molecule, the viability, T/C [31] was 78.7%, the viability, T/C [32] was 78.4% and the viability, T/C [33] was 79%. It also gave a viability, T/C [34] of 96.5%, a viability, T/C [35] of 76% and a viability, T/C [36] of 53.1%.
Molecule `CC1COCCN1c1cc(-c2ccnn2C)c2ccnc(-c3ccn[nH]3)c2n1` (stereo unspecified) + Cc1cccc(N(C)C(=O)C2C(O)CCN2c2nc(C)cc(C(F)(F)F)c2C#N)c1 has a pIC50 (second compound 0.0316 µM) of 7.22, a pIC50 (second compound 0.1 µM) of 7.27 and a pIC50 (second compound 0.316 µM) of 7.29. It also gave a pIC50 (second compound 1 µM) of 7.24, a pIC50 (second compound 3.16 µM) greater than 7.50 and a pIC50 (second compound 10 µM) of 7.05. The viability, T/C [1] was 77.7%, the viability, T/C [2] was 27.9% and the viability, T/C [3] was 13%. For the same molecule, the viability, T/C [4] was 24.4%, the viability, T/C [5] was 16.6% and the viability, T/C [6] was 8.57%. The viability, T/C [7] was 69.1%, the viability, T/C [8] was 28.4% and the viability, T/C [9] was 14.2%. For the same molecule, the viability, T/C [10] was 31.3%, the viability, T/C [11] was 15.1% and the viability, T/C [12] was 7.78%. It also gave a viability, T/C [13] of 72.5%, a viability, T/C [14] of 18.6% and a viability, T/C [15] of 25.1%. The viability, T/C [16] was 12.4%, the viability, T/C [17] was 15.7% and the viability, T/C [18] was 7.71%. For the same molecule, the viability, T/C [19] was 63.4%, the viability, T/C [20] was 33.9% and the viability, T/C [21] was 29.9%. The viability, T/C [22] was 16%, the viability, T/C [23] was 13.6% and the viability, T/C [24] was 7.27%. For the same molecule, the viability, T/C [25] was 49%, the viability, T/C [26] was 35.3% and the viability, T/C [27] was 18.5%. The viability, T/C [28] was 12.7%, the viability, T/C [29] was 11% and the viability, T/C [30] was 6.95%. It also gave a viability, T/C [31] of 81.8%, a viability, T/C [32] of 42% and a viability, T/C [33] of 30.7%. It also gave a viability, T/C [34] of 21.6%, a viability, T/C [35] of 15.3% and a viability, T/C [36] of 8.65%.
